In US11883389B2, “Formulations of 2-(4-chlorophenyl)-N-((2-(2,6- dioxopiperidin-3-yl)-1-oxoisoindolin-5-yl)methyl)-2,2-difluoroacetamide” (Celgene Corporation, priority 2016, dated 2024):

Experiments:
[1] = hygroscopicity / dynamic vapor sorption analysis; type: physicochemical; conditions: for water uptake (DVS): RH increased from about 0% to about 90% RH
Experimental: In certain embodiments, Form A is characterized by dynamic vapor sorption analysis. […] In certain embodiments, Form A comprises less than 0.1% water as determined in a coulometric Karl Fischer (KF) titrator equipped with an oven sample processor set at 225° C.
In certain embodiments, Form B is characterized by dynamic vapor sorption analysis. […] In certain embodiments, Form B comprises less than 0.1% water as determined in a coulometric Karl Fischer (KF) titrator equipped with an oven sample processor set at 225° C.
In certain embodiments, Form C is characterized by dynamic vapor sorption analysis. […] In certain embodiments, Form C comprises less than 0.1% water as determined in a coulometric Karl Fischer (KF) titrator equipped with an oven sample processor set at 225° C.

[2] = physchem; type: physicochemical; conditions: organic solvent or mixture
From the text: Due to the poor water solubility of Compound 1, Form C, a cosolvent system was required to solubilize the drug compound in a solution prior to lyophilization. Several solubilizing agents and solvents that were considered in this example include hydroxypropyl-beta-cyclodextrin (HPβCD), Sulfobutylether-β-cyclodextrin sodium salt (SBEβCD; Captisol®), Tert-butyl alcohol (TBA), and dimethylacetamide (DMA).
When the SBEβCD concentration increased from 30% to 40%, the enhancement in drug solubility was very limited.

[3] = pH 5
[4] = physchem; conditions: aqueous buffer

## O=C1CCC(N2Cc3cc(CNC(=O)C(F)(F)c4ccc(Cl)cc4)ccc3C2=O)C(=O)N1 (single isomer, unassigned) [Form A, 2-(4-Chlorophenyl)-N-((2-(2,6-dioxopiperidin-3-yl)-1-oxoisoindolin-5-yl)methyl)-2,2-difluoroacetamide]
[1]
  water uptake (DVS): about 1.2 % w/w

## O=C1CCC(N2Cc3cc(CNC(=O)C(F)(F)c4ccc(Cl)cc4)ccc3C2=O)C(=O)N1 (single isomer, unassigned) [Form C, 2-(4-Chlorophenyl)-N-((2-(2,6-dioxopiperidin-3-yl)-1-oxoisoindolin-5-yl)methyl)-2,2-difluoroacetamide]
[1]
  water uptake (DVS): about 0.6 % w/w
[2]
  solubility: < 166 mg/mL

## O=C1CCC(N2Cc3cc(CNC(=O)C(F)(F)c4ccc(Cl)cc4)ccc3C2=O)C(=O)N1 (stereo not shown) [Compound 1, 2-(4-chlorophenyl)-N-((2-(2,6-dioxopiperidin-3-yl)-1-oxoisoindolin-5-yl)methyl)-2,2-difluoroacetamide]
[3]
  Solution Stability: DS is not stable in solution at pH of 5.0 or above.
[1]
  Hygroscopicity: Not hygroscopic
[4]
  solubility: ≤ 0.001 mg/mL

## O=C1CCC(N2Cc3cc(CNC(=O)C(F)(F)c4ccc(Cl)cc4)ccc3C2=O)C(=O)N1 (stereo not shown) [Form B, 2-(4-chlorophenyl)-N-((2-(2,6-dioxopiperidin-3-yl)-1-oxoisoindolin-5-yl)methyl)-2,2-difluoroacetamide]
[1]
  water uptake (DVS): about 1.4 % w/w
